Patent US20260258032A1, “TYROSINE KINASE 2 INHIBITORS AND USES THEREOF” (BIOGEN MA INC., priority 2022, published 2026)
Structures can show the parent of a compound that is named as a salt.

Key:
JH2 domain of human Tyk2 = target: T1, JH2 domain of human Tyk2 (Homo sapiens, UniProt P29597); assay: JH2 biochemical assay (TR-FRET probe displacement); format: binding
T1 construct: 10×His-tagged TYK2 JH2 domain (amino acid 575-876)
Procedure, shortened: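 A probe-displacement TR-FRET readout: compounds, tested in 3-fold, 10-point dilutions starting at […], compete with 2 nM tracer for 2 nM His-tagged JH2 (residues 575-876) detected by 0.1 nM Tb-anti-His over 60 min. IC50 comes from 4-parameter fits of normalized 520/495 nm ratios.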

[1] = test system: Tyk2 kinase activity on STAT4; assay: pSTAT4 cell assay (MSD, NK92 cells); format: cell-based; conditions: compounds 1 hr
Procedure, shortened: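 Compound treatment of starved NK92 cells ran 1 hr before a 15-minute, 30 ng/mL IL2 pulse; lysates went to an MSD anti-STAT4 antibody assay, with curves fitted by 4-parameter logistic model.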

T1 sequence (P29597 575-876): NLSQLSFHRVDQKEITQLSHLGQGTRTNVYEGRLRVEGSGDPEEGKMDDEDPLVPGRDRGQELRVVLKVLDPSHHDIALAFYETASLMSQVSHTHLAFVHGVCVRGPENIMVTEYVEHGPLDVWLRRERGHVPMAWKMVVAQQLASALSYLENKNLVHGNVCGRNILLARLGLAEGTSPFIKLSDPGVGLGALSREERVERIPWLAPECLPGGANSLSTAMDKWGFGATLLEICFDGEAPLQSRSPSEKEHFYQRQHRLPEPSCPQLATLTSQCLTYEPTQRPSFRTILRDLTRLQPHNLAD

SMILES | IC50 (JH2 domain of human Tyk2; JH2 biochemical assay) [µM] | IC50 ([1]; stimulated 15 minutes) [µM] | IC50 (JH2 domain of human Tyk2; TR-FRET probe displacement, JH2 domain of human Tyk2) [µM] | IC50 ([1]; then stimulated 15 minutes) [µM]
CC(=O)Nc1cc2c(cn1)C1(CC1)CN2c1cc(C)cc(N2CC(C)(O)C2)n1 [Example 205, N-(1′-(6-(3-hydroxy-3-methylazetidin-1-yl)-4-methylpyridin-2-yl)-1′,2′-dihydrospiro[cyclopropane-1,3′-pyrrolo[3,2-c]pyridin]-6′-yl)acetamide] | 0.01 to 0.1 | ≥ 1 | – | –
COC1CC(Oc2cc(C)cc(N3CC4(CC4)c4cnc(NC(C)=O)cc43)n2)C1 (stereo not shown) [Example 343, N-(1′-(6-(3-methoxycyclobutoxy)-4-methylpyridin-2-yl)-1′,2′-dihydrospiro[cyclopropane-1,3′-pyrrolo[3,2-c]pyridin]-6′-yl)acetamide trifluoroacetate] | 0.1 to 1 | ≥ 1 | – | –
CC(=O)Nc1cc2c(cn1)C1(CC1)CN2c1cc(OC2(C#N)CC2)nc(C(C)(F)F)n1 [Example 144, N-(1′-(6-(1-cyanocyclopropoxy)-2-(1,1-difluoroethyl)pyrimidin-4-yl)-1′,2′-dihydrospiro[cyclopropane-1,3′-pyrrolo[3,2-c]pyridin]-6′-yl)acetamide trifluoroacetate] | 0.01 to 0.1 | ≥ 1 | – | –
CC(=O)Nc1cc2c(cn1)C1(CC1)CN2c1cc(C2CCOC2)nc(C(C)(F)F)n1 (stereo not shown) [Example 297, N-(1′-(2-(1,1-difluoroethyl)-6-(tetrahydrofuran-3-yl)pyrimidin-4-yl)-1′,2′-dihydrospiro[cyclopropane-1,3′-pyrrolo[3,2-c]pyridin]-6′-yl)acetamide trifluoroacetate] | ≤ 0.01 | 0.1 to 1 | – | –
CC(=O)Nc1cc2c(cn1)C1(CC1)CN2c1cc(C)nc(OC2CC(F)C2)n1 (stereo not shown) [Example 370, N-(1′-(2-(3-fluorocyclobutoxy)-6-methylpyrimidin-4-yl)-1′,2′-dihydrospiro[cyclopropane-1,3′-pyrrolo[3,2-c]pyridin]-6′-yl)acetamide] | 0.1 to 1 | ≥ 1 | – | –
CC(=O)Nc1cc2c(cn1)C1(CC1)CN2c1cc(NC2CC23CC3)nc(C(C)(F)F)n1 (stereo not shown) [Example 176, N-(1′-(2-(1,1-difluoroethyl)-6-(spiro[2.2]pentan-1-ylamino)pyrimidin-4-yl)-1′,2′-dihydrospiro[cyclopropane-1,3′-pyrrolo[3,2-c]pyridin]-6′-yl)acetamide trifluoroacetate] | ≤ 0.01 | 0.01 to 0.1 | – | –
CC(=O)Nc1cc2c(cn1)C1(CC1)CN2c1cc(C)cc(OCC(F)(F)F)n1 [Example 333, N-(1′-(4-methyl-6-(2,2,2-trifluoroethoxy)pyridin-2-yl)-1′,2′-dihydrospiro[cyclopropane-1,3′-pyrrolo[3,2-c]pyridin]-6′-yl)acetamide trifluoroacetate] | 0.1 to 1 | ≥ 1 | – | –
CC(=O)Nc1cc2c(cn1)C1(CC1)CN2c1cc(C)nc(OC2CC(F)(F)C2)n1 [Example 363, N-(1′-(2-(3,3-difluorocyclobutoxy)-6-methylpyrimidin-4-yl)-1′,2′-dihydrospiro[cyclopropane-1,3′-pyrrolo[3,2-c]pyridin]-6′-yl)acetamide] | 0.1 to 1 | ≥ 1 | – | –
CC(=O)Nc1cc2c(cn1)C1(CC1)CN2c1ccccn1 [Example 94, N-(1′-(pyridin-2-yl)-1′,2′-dihydrospiro[cyclopropane-1,3′-pyrrolo[3,2-c]pyridin]-6′-yl)acetamide] | 0.1 to 1 | ≥ 1 | – | –
CC(=O)Nc1cc2c(cn1)C1(CC1)CN2c1cc(C(C)(F)F)ncn1 [Example 280, N-(1′-(6-(1,1-difluoroethyl)pyrimidin-4-yl)-1′,2′-dihydrospiro[cyclopropane-1,3′-pyrrolo[3,2-c]pyridin]-6′-yl)acetamide] | 0.1 to 1 | ≥ 1 | – | –
COC(C)(C)COc1nc(C)cc(N2CC3(CC3)c3cnc(NC(C)=O)cc32)n1 [Example 373, N-(1′-(2-(2-methoxy-2-methylpropoxy)-6-methylpyrimidin-4-yl)-1′,2′-dihydrospiro[cyclopropane-1,3′-pyrrolo[3,2-c]pyridin]-6′-yl)acetamide] | – | – | 0.1 to 1 | ≥ 1
CC(=O)Nc1cc2c(cn1)C1(CC1)CN2c1cc(C)cc(N2CC(C#N)(C(F)F)C2)n1 [Example 202, N-(1′-(6-(3-cyano-3-(difluoromethyl)azetidin-1-yl)-4-methylpyridin-2-yl)-1′,2′-dihydrospiro[cyclopropane-1,3′-pyrrolo[3,2-c]pyridin]-6′-yl)acetamide] | 0.01 to 0.1 | ≥ 1 | – | –
COCCOC1CCN(c2cc(C)cc(N3CC4(CC4)c4cnc(NC(C)=O)cc43)n2)C1 (stereo not shown) [Example 185, N-(1′-(6-(3-(2-methoxyethoxy)pyrrolidin-1-yl)-4-methylpyridin-2-yl)-1′,2′-dihydrospiro[cyclopropane-1,3′-pyrrolo[3,2-c]pyridin]-6′-yl)acetamide] | 0.1 to 1 | ≥ 1 | – | –
CC(=O)Nc1cc2c(cn1)C1(CC1)CN2c1cc(C(C)O)nc(C(C)(F)F)n1 (stereo not shown) [Example 293, N-(1′-(2-(1,1-difluoroethyl)-6-(1-hydroxyethyl)pyrimidin-4-yl)-1′,2′-dihydrospiro[cyclopropane-1,3′-pyrrolo[3,2-c]pyridin]-6′-yl)acetamide] | ≤ 0.01 | 0.1 to 1 | – | –
CC(=O)Nc1cc2c(cn1)C1(CC1)CN2c1cc(C)nc(-c2cnn(CC3CC3)c2)n1 [Example 253, N-(1′-(2-(1-(cyclopropylmethyl)-1H-pyrazol-4-yl)-6-methylpyrimidin-4-yl)-1′,2′-dihydrospiro[cyclopropane-1,3′-pyrrolo[3,2-c]pyridin]-6′-yl)acetamide trifluoroacetate] | 0.01 to 0.1 | ≥ 1 | – | –
CC(=O)Nc1cc2c(cn1)C1(CC1)CN2c1cc(C)cc(N2CC(OC(F)F)C2)n1 [Example 198, N-(1′-(6-(3-(difluoromethoxy)azetidin-1-yl)-4-methylpyridin-2-yl)-1′,2′-dihydrospiro[cyclopropane-1,3′-pyrrolo[3,2-c]pyridin]-6′-yl)acetamide] | 0.1 to 1 | ≥ 1 | – | –
CC(=O)Nc1cc2c(cn1)C1(CC1)CN2c1cc(C)cc(-c2ccn(C)n2)n1 [Example 256, N-(1′-(4-methyl-6-(1-methyl-1H-pyrazol-3-yl)pyridin-2-yl)-1′,2′-dihydrospiro[cyclopropane-1,3′-pyrrolo[3,2-c]pyridin]-6′-yl)acetamide trifluoroacetate] | 0.01 to 0.1 | ≥ 1 | – | –
CC(=O)Nc1cc2c(cn1)C1(CC1)CN2c1cc(C)cc(N2CC(S(C)(=O)=O)C2)n1 [Example 203, N-(1′-(4-methyl-6-(3-(methylsulfonyl)azetidin-1-yl)pyridin-2-yl)-1′,2′-dihydrospiro[cyclopropane-1,3′-pyrrolo[3,2-c]pyridin]-6′-yl)acetamide] | 0.1 to 1 | ≥ 1 | – | –
CC(=O)Nc1cc2c(cn1)C1(CC1)CN2c1cc(N[C@H]2C[C@@H](F)C2)nc(C(C)(F)F)n1 [Example 168, N-(1′-(2-(1,1-difluoroethyl)-6-(((1s,3s)-3-fluorocyclobutyl)amino)pyrimidin-4-yl)-1′,2′-dihydrospiro[cyclopropane-1,3′-pyrrolo[3,2-c]pyridin]-6′-yl)acetamide trifluoroacetate] | 0.01 to 0.1 | 0.1 to 1 | – | –
CC(=O)Nc1cc2c(cn1)C1(CC1)CN2c1cc(C)cc(N2CC(F)C2)n1 [Example 195, N-(1′-(6-(3-fluoroazetidin-1-yl)-4-methylpyridin-2-yl)-1′,2′-dihydrospiro[cyclopropane-1,3′-pyrrolo[3,2-c]pyridin]-6′-yl)acetamide] | 0.01 to 0.1 | ≥ 1 | – | –
CC(=O)Nc1cc2c(cn1)C1(CC1)CN2c1cc(C)cc(N2CC(O)C(O)C2)n1 (stereo not shown) [Example 187, N-(1′-(6-(3,4-dihydroxypyrrolidin-1-yl)-4-methylpyridin-2-yl)-1′,2′-dihydrospiro[cyclopropane-1,3′-pyrrolo[3,2-c]pyridin]-6′-yl)acetamide] | 0.1 to 1 | ≥ 1 | – | –
CC(=O)Nc1cc2c(cn1)C1(CC1)CN2c1cc(C)nc(S(C)(=O)=O)n1 [Example 136, N-(1′-(6-methyl-2-(methylsulfonyl)pyrimidin-4-yl)-1′,2′-dihydrospiro[cyclopropane-1,3′-pyrrolo[3,2-c]pyridin]-6′-yl)acetamide] | ≤ 0.01 | 0.01 to 0.1 | – | –
CCc1nc(C)cc(N2CC3(CC3)c3cnc(NC(C)=O)cc32)n1 [Example 64, N-(1′-(2-ethyl-6-methylpyrimidin-4-yl)-1′,2′-dihydrospiro[cyclopropane-1,3′-pyrrolo[3,2-c]pyridin]-6′-yl)acetamide] | 0.01 to 0.1 | ≥ 1 | – | –
CC(=O)Nc1cc2c(cn1)C1(CC1)CN2c1cc(C(=O)O)nc(C(C)(F)F)n1 [Example 294, 6-(6′-acetamidospiro[cyclopropane-1,3′-pyrrolo[3,2-c]pyridin]-1′(2′H)-yl)-2-(1,1-difluoroethyl)pyrimidine-4-carboxylic acid] | 0.01 to 0.1 | ≥ 1 | – | –
CCS(=O)(=O)C1CN(c2nc(C)cc(N3CC4(CC4)c4cnc(NC(C)=O)cc43)n2)C1 [Example 225, N-(1′-(2-(3-(ethylsulfonyl)azetidin-1-yl)-6-methylpyrimidin-4-yl)-1′,2′-dihydrospiro[cyclopropane-1,3′-pyrrolo[3,2-c]pyridin]-6′-yl)acetamide] | 0.1 to 1 | ≥ 1 | – | –
CCS(=O)(=O)C1CN(c2cc(C)cc(N3CC4(CC4)c4cnc(NC(C)=O)cc43)n2)C1 [Example 204, N-(1′-(6-(3-(ethylsulfonyl)azetidin-1-yl)-4-methylpyridin-2-yl)-1′,2′-dihydrospiro[cyclopropane-1,3′-pyrrolo[3,2-c]pyridin]-6′-yl)acetamide] | 0.1 to 1 | ≥ 1 | – | –
